Experimental data: US20260356856A1, “KRAS G12S AND G12C INHIBITORS” (MIRATI THERAPEUTICS, INC., priority 2023, published 2026)

Key:
[1] = molecular target: T1, KRas-mediated phosphorylation of ERK in H358 cells (Homo sapiens, UniProt P01116, G12C); experiment: Inhibition of KRas-mediated phosphorylation of ERK (HTRF), H358 cells; assay type: cell-based; conditions: HTRF pERK, 3 h incubation
T1 construct: pERK HTRF read-out

KRas G12S = molecular target: T2, KRas G12S (Homo sapiens, UniProt P01116, G12S); experiment: KRas binding assay, TR-FRET displacement of Cy5 labelled tracer; conditions: 60-minute incubation at room temperature, 1% DMSO, pH 7.5
T2 construct: Biotinylated KRas (corresponding to amino acids 1-169, produced at Accelegan Inc.); biotin (biotinylated); purchased Accelegan Inc
Procedure, shortened: (§1)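 Final conditions: 1% DMSO, pH 7.5 HEPES buffer, 60 min, room temperature. Protein: biotin-KRas 1-169 with terbium streptavidin. Output: IC50, four-parameter fit of POC.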

KRas G12C = molecular target: T3, KRas G12C (Homo sapiens, UniProt P01116, G12C); experiment: as above; conditions: 60-minute incubation at room temperature, 1% DMSO, pH 7.5
T3 construct: Biotinylated KRas (corresponding to amino acids 1-169, produced at Accelegan Inc.); biotin (biotinylated); purchased Accelegan Inc
Procedure, shortened: as §1

KRas WT = molecular target: T4, KRas WT (Homo sapiens, UniProt P01116); experiment: as above; conditions: 60-minute incubation at room temperature, 1% DMSO, pH 7.5
T4 construct: Biotinylated KRas (corresponding to amino acids 1-169, produced at Accelegan Inc.); biotin (biotinylated); purchased Accelegan Inc
Procedure, shortened: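 Compound competes with tracer for biotin-labelled KRas (amino acids 1-169) bound to terbium-streptavidin. Incubation runs 60 minutes at room temperature, final DMSO 1%. IC50 values derive from a 4-parameter fit.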

[2] = molecular target: T5, KRas-mediated phosphorylation of ERK in A549 cells (Homo sapiens, UniProt P01116, G12S); experiment: Inhibition of KRas-mediated phosphorylation of ERK (HTRF), A549 cells; assay type: cell-based; conditions: HTRF pERK, 3 h incubation
T5 construct: pERK HTRF read-out

[3] = molecular target: T6, KRas-mediated phosphorylation of ERK in MKN1 cells (Homo sapiens, UniProt P01116); experiment: Inhibition of KRas-mediated phosphorylation of ERK (HTRF), MKN1 cells; assay type: cell-based; conditions: MKN1 cells (KRas WT); HTRF pERK; 3 h incubation
T6 construct: pERK HTRF read-out
Procedure: Inhibition of KRas Phosphorylation of ERK (HTRF) by Exemplary Compounds of Formula (Ia) or (Ib)
Cisbio HTRF Advanced pERK Assay Catalog #64AERPEH • Cells: MKN1, PSN1 • Procedure: • 1. Day 1: Seed 6,000 cells/well −25 μl/well in 384-well white solid bottom plate; RPM1_10% FBS. Incubate overnight at 37 °C/5% CO2. • 2.

T2 sequence (P01116 1-169 isoform P01116-2 G12S): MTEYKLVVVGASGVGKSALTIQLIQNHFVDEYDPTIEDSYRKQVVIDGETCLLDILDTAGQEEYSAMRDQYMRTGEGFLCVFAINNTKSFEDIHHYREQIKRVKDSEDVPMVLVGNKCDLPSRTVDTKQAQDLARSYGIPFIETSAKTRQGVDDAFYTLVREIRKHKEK
T5 sequence (P01116 1-188 isoform P01116-2 G12S): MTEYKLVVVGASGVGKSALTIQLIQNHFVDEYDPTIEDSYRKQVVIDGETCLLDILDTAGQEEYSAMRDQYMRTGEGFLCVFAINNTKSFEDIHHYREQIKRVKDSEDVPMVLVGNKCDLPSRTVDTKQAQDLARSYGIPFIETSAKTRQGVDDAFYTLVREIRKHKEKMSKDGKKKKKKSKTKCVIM
T1 sequence (P01116 1-188 isoform P01116-2 G12C): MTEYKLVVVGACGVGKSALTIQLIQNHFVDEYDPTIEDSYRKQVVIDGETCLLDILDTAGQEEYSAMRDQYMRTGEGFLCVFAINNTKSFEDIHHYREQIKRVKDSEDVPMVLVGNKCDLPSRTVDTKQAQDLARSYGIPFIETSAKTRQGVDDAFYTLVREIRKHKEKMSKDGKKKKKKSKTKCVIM
T6 sequence (P01116 1-188 isoform P01116-2): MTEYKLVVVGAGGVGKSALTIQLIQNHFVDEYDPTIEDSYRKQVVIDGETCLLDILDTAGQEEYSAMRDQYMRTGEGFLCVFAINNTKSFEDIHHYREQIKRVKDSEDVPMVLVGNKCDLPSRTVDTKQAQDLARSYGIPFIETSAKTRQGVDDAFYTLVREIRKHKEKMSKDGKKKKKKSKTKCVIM
T3 sequence (P01116 1-169 isoform P01116-2 G12C): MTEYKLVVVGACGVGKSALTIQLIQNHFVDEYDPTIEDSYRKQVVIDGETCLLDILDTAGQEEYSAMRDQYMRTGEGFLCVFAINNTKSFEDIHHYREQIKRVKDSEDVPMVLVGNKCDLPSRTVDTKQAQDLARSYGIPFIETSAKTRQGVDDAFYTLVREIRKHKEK
T4 sequence (P01116 1-169 isoform P01116-2): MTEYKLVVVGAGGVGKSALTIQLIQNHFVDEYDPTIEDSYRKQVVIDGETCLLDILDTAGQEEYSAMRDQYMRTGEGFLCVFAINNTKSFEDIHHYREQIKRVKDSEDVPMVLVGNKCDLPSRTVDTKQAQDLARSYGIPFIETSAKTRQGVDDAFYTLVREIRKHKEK

Row | IC50 [1] [nM] | IC50 (KRas G12S) [nM] | IC50 (KRas G12C) [nM] | IC50 (KRas WT) [nM] | IC50 [2] [nM] | IC50 [3] [nM] | SMILES
1 | 411 | 6 | 4 | 9 | 1180 | 388 | CN(CCCC(=O)Nc1ccncc1)c1nc(OC[C@@]23CCCN2C[C@H](F)C3)nc2c(F)c(-c3ccc(F)c4sc(N)c(C#N)c34)c(Cl)cc12 [Example 269, 4-((7-(2-amino-3-cyano-7-fluorobenzo[b]thiophen-4-yl)-6-chloro-8-fluoro-2-(((2R,7aS)-2-fluorotetrahydro-1H-pyrrolizin-7a(5H)-yl)methoxy)quinazolin-4-yl)(methyl)amino)-N-(pyridin-4-yl) butanamide]
2 | 77 | 22 | 4 | 74 | 462 | 340 | CN(CCCC(=O)Oc1ccc(F)cc1)c1nc(OC[C@@]23CCCN2C[C@H](F)C3)nc2c(F)c(-c3ccc(F)c4sc(N)c(C#N)c34)c(Cl)cc12 [Example 270, 4-fluorophenyl 4-((7-(2-amino-3-cyano-7-fluorobenzo[b]thiophen-4-yl)-6-chloro-8-fluoro-2-(((2R,7aS)-2-fluorotetrahydro-1H-pyrrolizin-7a(5H)-yl)methoxy)quinazolin-4-yl)(methyl)amino)butanoate]
3 | 31 | 16 | 4 | 81 | 139 | 177 | CN(CCCC(=O)Oc1ccc(F)cc1F)c1nc(OC[C@@]23CCCN2C[C@H](F)C3)nc2c(F)c(-c3ccc(F)c4sc(N)c(C#N)c34)c(Cl)cc12 [Example 271, 2,4-difluorophenyl 4-((7-(2-amino-3-cyano-7-fluorobenzo[b]thiophen-4-yl)-6-chloro-8-fluoro-2-(((2R,7aS)-2-fluorotetrahydro-1H-pyrrolizin-7a(5H)-yl)methoxy)quinazolin-4-yl)(methyl)amino)butanoate]
4 | 3 | 5 | 6 | 9 | 4 | 62 | Cc1ccn(C(=O)C2CCCN(c3nc(OC[C@@]45CCCN4C[C@H](F)C5)nc4c(F)c(-c5ccc(F)c6sc(N)c(C#N)c56)c(C(F)(F)F)cc34)CC2)n1 (stereo partly drawn) [Example 272, 2-amino-7-fluoro-4-(8-fluoro-2-(((2R,7aS)-2-fluorotetrahydro-1H-pyrrolizin-7a(5H)-yl)methoxy)-4-(4-(3-methyl-1H-pyrazole-1-carbonyl)azepan-1-yl)-6-(trifluoromethyl)quinazolin-7-yl)benzo[b]thiophene-3-carbonitrile]
5 | 494 | 40 | 30 | 58 | 745 | 340 | CCc1c(F)ccc2cc(O)cc(-c3ncc4c(N(C)CCC(=O)N(C)C(C)=O)nc(OC[C@@]56CCCN5C[C@H](F)C6)nc4c3F)c12 [Example 273, N-acetyl-3-((7-(8-ethyl-7-fluoro-3-hydroxynaphthalen-1-yl)-8-fluoro-2-(((2R,7aS)-2-fluorotetrahydro-1H-pyrrolizin-7a(5H)-yl)methoxy)pyrido[4,3-d]pyrimidin-4-yl)(methyl)amino)-N-methylpropanamide]
6 | 662 | 89 | 65 | 51 | 326 | 287 | CCc1c(F)ccc2cc(O)cc(-c3ncc4c(N5CCC(C(=O)N(C)C(C)=O)C5)nc(OC[C@@]56CCCN5C[C@H](F)C6)nc4c3F)c12 (stereo partly drawn) [Example 274, N-acetyl-1-(7-(8-ethyl-7-fluoro-3-hydroxynaphthalen-1-yl)-8-fluoro-2-(((2R,7aS)-2-fluorotetrahydro-1H-pyrrolizin-7a(5H)-yl)methoxy)pyrido[4,3-d]pyrimidin-4-yl)-N-methylpyrrolidine-3-carboxamide]
7 | 164 | 15 | 52 | 47 | 58 | 437 | CCc1c(F)ccc2cc(O)cc(-c3ncc4c(N5CCCCC(C(=O)N(C)C(C)=O)CC5)nc(OC[C@@]56CCCN5C[C@H](F)C6)nc4c3F)c12 (stereo partly drawn) [Example 275, N-acetyl-1-(7-(8-ethyl-7-fluoro-3-hydroxynaphthalen-1-yl)-8-fluoro-2-(((2R,7aS)-2-fluorotetrahydro-1H-pyrrolizin-7a(5H)-yl)methoxy)pyrido[4,3-d]pyrimidin-4-yl)-N-methylazocane-4-carboxamide]
8 | 1480 | 68 | 129 | 148 | 101 | 1030 | CCc1c(F)ccc2cc(O)cc(-c3ncc4c(N5CC(CC(=O)N(C)C(C)=O)C5)nc(OC[C@@]56CCCN5C[C@H](F)C6)nc4c3F)c12 [Example 276, N-acetyl-2-(1-(7-(8-ethyl-7-fluoro-3-hydroxynaphthalen-1-yl)-8-fluoro-2-(((2R,7aS)-2-fluorotetrahydro-1H-pyrrolizin-7a(5H)-yl)methoxy)pyrido[4,3-d]pyrimidin-4-yl)azetidin-3-yl)-N-methylacetamide]
9 | 6510 | 539 | 864 | 357 | 549 | 2360 | CCc1c(F)ccc2cc(O)cc(-c3ncc4c(N5CC6CC(C(=O)N(C)C(C)=O)C6C5)nc(OC[C@@]56CCCN5C[C@H](F)C6)nc4c3F)c12 (stereo partly drawn) [Example 277, N-acetyl-3-(7-(8-ethyl-7-fluoro-3-hydroxynaphthalen-1-yl)-8-fluoro-2-(((2R,7aS)-2-fluorotetrahydro-1H-pyrrolizin-7a(5H)-yl)methoxy)pyrido[4,3-d]pyrimidin-4-yl)-N-methyl-3-azabicyclo[3.2.0]heptane-6-carboxamide]
10 | 1180 | 48 | 58 | 41 | 292 | 217 | CCc1c(F)ccc2cc(O)cc(-c3ncc4c(N5CC[C@H]6[C@@H](C5)[C@H]6C(=O)N(C)C(C)=O)nc(OC[C@@]56CCCN5C[C@H](F)C6)nc4c3F)c12 [Example 278, (1R,6S)-N-acetyl-3-(7-(8-ethyl-7-fluoro-3-hydroxynaphthalen-1-yl)-8-fluoro-2-(((2R,7aS)-2-fluorotetrahydro-1H-pyrrolizin-7a(5H)-yl)methoxy)pyrido[4,3-d]pyrimidin-4-yl)-N-methyl-3-azabicyclo[4.1.0]heptane-7-carboxamide]
11 | 4900 | 188 | 334 | 332 | 276 | 1690 | CCc1c(F)ccc2cc(O)cc(-c3ncc4c(N5CC6CC(C(=O)N(C)C(C)=O)CC6C5)nc(OC[C@@]56CCCN5C[C@H](F)C6)nc4c3F)c12 (stereo partly drawn) [Example 279, N-acetyl-2-(7-(8-ethyl-7-fluoro-3-hydroxynaphthalen-1-yl)-8-fluoro-2-(((2R,7aS)-2-fluorotetrahydro-1H-pyrrolizin-7a(5H)-yl)methoxy)pyrido[4,3-d]pyrimidin-4-yl)-N-methyloctahydrocyclopenta[c]pyrrole-5-carboxamide]
12 | 428 | 14 | 17 | 9 | 107 | 102 | CCc1c(F)ccc2cc(O)cc(-c3ncc4c(NCC5CC(C(=O)N(C)C(C)=O)C5)nc(OC[C@@]56CCCN5C[C@H](F)C6)nc4c3F)c12 (stereo partly drawn) [Example 280, N-acetyl-3-(((7-(8-ethyl-7-fluoro-3-hydroxynaphthalen-1-yl)-8-fluoro-2-(((2R,7aS)-2-fluorotetrahydro-1H-pyrrolizin-7a(5H)-yl)methoxy)pyrido[4,3-d]pyrimidin-4-yl)amino)methyl)-N-methylcyclobutane-1-carboxamide]
13 | 198 | 10 | 9 | 8 | 243 | 41 | CCc1c(F)ccc2cc(O)cc(-c3ncc4c(NC[C@@H]5C[C@H]5C(=O)N(C)C(C)=O)nc(OC[C@@]56CCCN5C[C@H](F)C6)nc4c3F)c12 [Example 281, trans-N-acetyl-2-(((7-(8-ethyl-7-fluoro-3-hydroxynaphthalen-1-yl)-8-fluoro-2-(((2R,7aS)-2-fluorotetrahydro-1H-pyrrolizin-7a(5H)-yl)methoxy)pyrido[4,3-d]pyrimidin-4-yl)amino)methyl)-N-methylcyclopropane-1-carboxamide]
14 | 1290 | 44 | 82 | 184 | 185 | 870 | CCc1c(F)ccc2cc(O)cc(-c3ncc4c(N(C)C(C)CCC(=O)N(C)C(C)=O)nc(OC[C@@]56CCCN5C[C@H](F)C6)nc4c3F)c12 (stereo partly drawn) [Example 282, N-acetyl-4-((7-(8-ethyl-7-fluoro-3-hydroxynaphthalen-1-yl)-8-fluoro-2-(((2R,7aS)-2-fluorotetrahydro-1H-pyrrolizin-7a(5H)-yl)methoxy)pyrido[4,3-d]pyrimidin-4-yl)(methyl)amino)-N-methylpentanamide]
